Assays:
[1] = test system: E. coli Str. K-12 substr. MG1655 strains; experiment: Crotyl alcohol tolerance study (Bioscreen growth curves, turbidity OD420-580); format: cell-based; conditions: 138 mM crotyl alcohol, M9+11.1 mM glucose, 37° C., FIG. 4B
Method: (§1) E. coli Str. K-12 substr. MG1655 strains 48 (wildtype) and 3-FEDB with multiple deletions (ΔyahkΔadhPΔyqhDΔadhE); and E. coli ATCC 8739 C strains (wildtype) and its variants 3-FISC (ΔadhE), 3-GAEB (ΔadhEΔyqhD), 3-GBOG (ΔadhEΔyqhDΔadhP), and 3-GDOB (ΔadhEΔyqhDΔadhPΔyahK) were struck for single colonies on LB agar from a glycerol freezer stock. Four single colonies per strain were picked and inoculated into 1 mL LB+55.7 mM glucose in deep well 96 well plates and grown at 37° C. overnight (16-20 hours). The optical density of the overnight culture was taken and cells were normalized to OD600=1 and spun down. Cells were resuspended in 1 mL of M9 minimal media+11.1 mM glucose. Cells were then spun down and washed again in 1 mL M9+11.1 mM glucose. Bioscreen honeycomb 2 plates (Cat. No. 9502550) were filled with 198 μL M9+11.1 mM glucose or M9+11.1 mM glucose+138 mM crotyl alcohol (Sigma-Aldrich). 2 μL washed cells were added to each well at N=4. Bioscreen honeycomb 2 plates were loaded into a bioscreen C MBR (Oy Growth Curves Ab Ltd) machine, an incubator system set to read turbidity at OD420-580 every 15 minutes at 37° C. For growth curve data, see FIG. 4A (E. coli Str. K-12 substr. MG1655 strains) and FIG. 4B (E. coli ATCC 8739 C variant strains).

[2] = test system: E. coli ATCC 8739 C strains; experiment: as above; format: cell-based; conditions: 138 mM crotyl alcohol, FIG. 5B
Method: as §1

For `CC=CCO` [crotyl alcohol, but-2-en-1-ol], the “growth in the presence of crotyl alcohol” value ([1]; strain 3-FEDB (ΔyahKΔadhPΔyqhDΔadhE)) was “while showing an initial lag grew on crotyl alcohol”, the “growth in the presence of crotyl alcohol” value ([1]; wild-type or parental strain (48)) was “growth is inhibited” and the “growth in the presence of crotyl alcohol” value ([2]; M9+11.1 mM glucose, 37° C., wild-type or parental strain) was “growth is inhibited”. The “growth in the presence of crotyl alcohol” value ([2]; strain 3-FIDC (ΔadhE)) was “inhibited”, the “growth in the presence of crotyl alcohol” value ([2]; strain 3-GAEB (ΔadhEΔyqhD)) was “inhibited” and the “growth in the presence of crotyl alcohol” value ([2]; strain 3-GBOB (ΔadhEΔyqhDΔadhP)) was “while showing an initial lag grew on crotyl alcohol”. The “growth in the presence of crotyl alcohol” value ([2]; strain 3-GBOG (ΔyahKΔadhPΔyqhDΔadhE)) was “while showing an initial lag grew on crotyl alcohol”.
